What was measured:
FPRL-1 = settings: uM concentrations; cited from earlier work
Ste2p = biological target: T1, Ste2p (Saccharomyces cerevisiae, UniProt D6VTK4); assay: Pho5p acid phosphatase activity in strains with PHO4/STE12 chimerae (Ste2p activation); type: cell-based, S. cerevisiae
T1 construct: CY 1638 (MATa far1*1442 tbt1-1 FUS1-HIS3 trp1ura3 leu2 his3 suc2); endogenous in cells; host or cells: S. cerevisiae CY 11643 (MATa, pho3 and pho4 disrupted, from CY 1638 via CY 9788), carrying PHO4/STE12 chimera plasmids or Cadus 4129
T1 sequence (D6VTK4 1-431): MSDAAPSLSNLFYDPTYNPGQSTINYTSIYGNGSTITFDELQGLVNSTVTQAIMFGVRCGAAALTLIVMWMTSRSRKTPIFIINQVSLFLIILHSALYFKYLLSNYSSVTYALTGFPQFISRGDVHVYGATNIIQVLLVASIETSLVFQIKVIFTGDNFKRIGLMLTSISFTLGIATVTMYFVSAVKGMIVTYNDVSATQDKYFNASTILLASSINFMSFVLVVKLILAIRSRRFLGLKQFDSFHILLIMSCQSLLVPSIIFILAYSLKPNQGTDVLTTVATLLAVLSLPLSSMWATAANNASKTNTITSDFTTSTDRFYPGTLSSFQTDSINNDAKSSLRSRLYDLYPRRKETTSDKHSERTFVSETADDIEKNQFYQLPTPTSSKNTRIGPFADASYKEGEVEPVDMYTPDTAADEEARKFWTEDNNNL
Experimental: were used to amplify the KanMX2 gene. The amplification product was flanked by sequences corresponding to the 5' and 3' ends of the PHO4 gene. […] Transformants were selected on YEPD+geneticin (200 μg/ml) plates. […] Cells were patched onto YEPD or phosphate-depleted YEPD plates and allowed to grow overnight. For each plate, a mixture of 2 ml of molten 1% agarose in 50 mM NaAc pH 4.0, 700 μl H2 O, and 300 μl α-napthyl acid phosphate (50 mg/ml) was prepared and applied to the plate. Then 1 ml of D-dianisidine fast blue salt B (50 mg/ml in 50 mM NaAc pH 4.0) was poured onto the plate. The degree of color development is a measure of acid phosphatase activity produced by the patch of cells.
The PHO3 gene also encodes a secreted acid phosphatase, but its expression is not regulated by Pho4p. […] Since this gene is not essential and its presence would require that all assays be done under conditions of phosphate starvation, it was disrupted. Primers
were used to amplify sequences in the 3' untranslated region of the PHO3 gene. The amplification product which bears an EcoRI site ate its 5' end and an XbaI site at its 3' end was digested with EcoRI and XbaI and gel purified.
Cells were grown overnight in SD TRP- media. […] The cultures were split in half (2.5 ml each) and α-factor (25 μg) was added to one aliquot. After 2.5 hours at 30° C., the cells were collected by centrifugation, washed 3 times with H2 O, once with 50 mM NaAc pH 4.0, and resuspended in 250 μl 50 mM NaAc pH 4.0. […] 100 μl cells were added to 400 μl p-nitrophenyl phosphate (1 mg/ml in 50 mM NaAc pH 4.0). After 15 min at room temperature, 720 μl saturated NaCO3 was added to stop the reaction. The cells were removed by centrifugation and the optical density at 420 nm was determined.

[1] = biological target: T2, S. cerevisiae pheromone receptor, Ste2p (Saccharomyces cerevisiae, UniProt D6VTK4); assay: Bar1 plate assay, agonist-induced Ste2p activation; type: cell-based
T2 sequence (D6VTK4 1-431): T1 sequence (D6VTK4 1-431)
Experimental: The cells were removed from the culture by filtration.
Assay plates were prepared as follows. CY 579 cells were grown overnight in YEPD medium.
Since CY 579 lacks the BAR1 gene, it is super-sensitive to α-factor causing its growth to be arrested on the YEPD+α-factor plate. If the conditioned media applied to the lawn contains Bar1p activity, the α-factor in that region is destroyed, allowing growth of the CY 579 cells.
First, the gene encoding the S. cerevisiae Gα, GPA 1, was reintroduced into the genome of CY 8034 (MATa gpa1*1162 far1-1 ste2*1154 ste14::trp1::LYS2 fus1-HIS3 ura3 trp1 leu2 lys2 his3 ade2-1 met1) by transformation with an integrating plasmid encoding GPA1 (Cadus 3907), creating CY 11364. Next, the gene encoding the S. cerevisiae RGS protein, SST2, was disrupted in this strain to create CY 11645. Since Sst2p is involved in desensitization of the pheromone response pathway, its disruption results in increased signaling through the pathway (Reviewed by Sprague and Thorner in Molecular and Cellular Biology of the Yeast Saccharomyces. Vol. 2. 1992).
A high copy number Ste2 expression plasmid was constructed as follows. […]
(to OD600 0.4). […] A standard curve was also done with each experiment (described in Example 1) to quantitate the results.

human C5a receptor [2] = assay: Autocrine activation, fus1-lacZ beta-galactosidase; type: cell-based; settings: R+L+ cells
Experimental: CY878 (MATα tbt1-1 fus1-HIS3 caN1 ste14::trp1::LYS2 ste3* 1156 gpal(41)-Gαi2) was used as the starting strain for these experiments. This strain is a trp1 derivative of CY455. The transformants for this experiment contained CADUS 1584 (pRS424-fus1-lacZ) in addition to the receptor and ligand plasmids. Four strains were grown overnight in SD LEU URA TRP pH6.8 with 50 mM PIPES to an OD600 of less than 0.8. Assay of β-galactosidase activity can be done useing methods known in the art (Guarente 1983).

human C5a receptor [3] = assay: Autocrine activation of pheromone pathway, growth read-out (fus1-HIS3); type: cell-based
Source text: The strain used for this analysis, CY455 (MATα tbt1-1 ura3 leu2 trp1 his3 fus1-HIS3 can1 ste14::TRP1 ste3* 1156) contains the following significant modifications. A pheromone inducible HIS3 gene, fus1-HIS3, is integrated at the Fus1 locus. A hybrid gene containing sequence encoding the first 41 amino acids of GPA1 (the yeast Gα subunit) fused to sequence encoding human Gαi2a (minus codons for the N-terminal 33 amino acids) replaces GPA1 at its normal chromosomal location. The yeast STE14 gene is disrupted to lower the basal level of signaling through the pheromone response pathway. The yeast a-factor receptor gene, STE3, is deleted. The last two modifications are probably not essential, but appear to improve the signal-to-noise ratio.
CY455 (MATα tbt1-1 ura3 leu2 trp1 his3 fus1-HIS3 can1 ste14::TRP1 ste3 * 1156) was transformed with the following plasmids:
Cadus 1303+Cadus 1297=Receptor^+ Ligand^+ =(R+L+)
Three colonies were picked from each transformation and grown overnight in media lacking leucine and uracil, at pH 6.8 with 25 mM PIPES (LEU URA pH6.8 with 25 mM PIPES). This media was made by adding 0.45 ml of sterile 1 M KOH and 2.5 ml of sterile 1M PIPES pH 6.8 to 100 ml of standard SD LEU- URA- media. […] The optical density at 600 nm of a 1/20 dilution of these cultures was determined and the cultures were diluted into 25 mM PIPES pH 6.8 to a final OD600 of 0.2. […]

C5a receptor = settings: data derived from mammalian cells; read-out: binding constant of C5a to its receptor; cited from earlier work
induced HL60 cells = assay: Competition with radiolabeled C5a for binding on induced HL60 cells; settings: C5a expressed in yeast

Molecule: CSCC[C@H](NC=O)C(=O)N[C@@H](CC(C)C)C(=O)N[C@@H](Cc1ccccc1)C(=O)O [f-Met-Leu-Phe]
- binding to fibroblasts transfected with FPRL-1 cDNA (FPRL-1): weak binding

Molecule: α-factor
- acid phosphatase activity inducible by pheromone (Ste2p; all strains expressing Pho4/Ste12 chimerae): pheromone-inducible acid phosphatase activity was observed
- change of acid phosphatase activity on exposure to α-factor (Ste2p; cells expressing only the Pho4p DNA binding domain (CY11643+Cadus 4129)): not increased by exposure to α-factor
- Pho5p induction ratio (Ste2p; other chimerae with very low constitutive activity): 5-10 fold
- Pho5p induction ratio (Ste2p; two chimerae with high constitutive activity (printed Cadus 4184 and Cadus 4185)): 2-4 fold
- increase in Bar1p activity ([1]; cells expressing Ste2p (CY 11728), α-factor 10 μg, 2 h, 30° C.): greater than 8 fold
- Bar1p activity in conditioned media ([1]; cells lacking the Ste2p expression plasmid (CY 11727)): Little or no Bar1p activity was detected

B1: C5a: Human C5a is a 74 amino acid polypeptide that derives from the fifth component of complement (protein, UniProt P01031 678-751, looked up)
C5a anaphylatoxin: TLQKKIEEIAAKYKHSVVKKCCYDGACVNNDETCEQRAARISLGPRCIKAFTECCVVASQLRANISHKDMQLGR
modifications: C5a anaphylatoxin
notes: Human C5a is a 74 amino acid polypeptide that derives from the fifth component of complement
- autocrine stimulation and β-galactosidase activity (human C5a receptor [2]): results in autocrine stimulation and β-galactosidase activity
- growth on selective plates lacking histidine (human C5a receptor [3]; R+L+ strain, C5a expressed by the cell): show growth on the selective plates
- aminotriazole concentration up to which the R+L+ strain will grow (human C5a receptor [3]; highest concentration tested): up to 5 mM
- Kd (C5a receptor): 1 nM
- competition for binding with radiolabeled C5a (induced HL60 cells): shown to compete for binding
